Patent US20260007717A1, “ANTIMICROBIAL PEPTIDE COMPOUNDS AND METHODS OF USE” (priority 2022, published 2026)
In brackets after ≈: the same amount, converted by molar mass. Several values for one entry are separate records, joined by “and”; a condition that tells them apart may be missing. Equal values may be shown once. Read-outs that look alike come from different tables or passages of the source. Non-standard residues stand in square brackets, D forms with d. Residues, ends and D or L forms follow the SMILES beside them. Aib = CC(C)(N)C(=O)O

Legend:
[1] = single intravenous injection; cited from earlier work
[2] = tested on: Streptococcus pneumoniae, methicillin-sensitive Staphylococcus aureus, MRSA, Klebsiella pneumoniae and Pseudomonas aeruginosa; assay type: cell-based
[3] = Stability in 100% human plasma (inhibition zone on A. baumannii YQ4); assay type: in vitro ADME
A. baumannii = assay: Bactericidal efficacy in PBS, LB broth and saline; assay type: cell-based, Acinetobacter baumannii; conditions: 1×MIC, 2 h
P. gingivalis = assay type: cell-based; conditions: anaerobic BHI broth
Experimental: Briefly, P. gingivalis is grown under anaerobic conditions to mid-log phase as per Dominy et al. […] The microtiter plate method outlined by Jansen (ibid) was used to measure MICs. Compounds and bacteria are added to wells of a microtiter plate and grown anaerobically (P. gingivalis) or with CO2 (L. salivarius) for 24 to 72 hours. Growth is measured with light scattering at 592 nm on a plate reader and absorbance plotted against μg/ml of drug in each well.

PDR A. baumannii YQ4 = assay: Dynamic time-kill assay in PBS
A. baumanii YQ4 = assay: Induction of resistance through serial passage; conditions: after 55 passages at sub-MIC
[4] = tested on: normal human hepatic L02 cells; assay: Cytotoxicity, CCK8 assay; conditions: 24 h
A. baumannii YQ4 biofilm = assay: Static biofilm inhibition, crystal violet; assay type: cell-based, Acinetobacter baumannii
[5] = tested on: pan-drug resistant (PDR) Acinetobacter baumannii YQ4
[6] = tested on: A. baumannii ATCC19606 and LPS-modified strains pmrAP102R and pmrAP102RmiaAI221V; assay: MIC on wild-type and LPS-modified strains; assay type: cell-based, Acinetobacter baumannii; conditions: LB broth
A. baumannii YQ4 [7] = assay: Nematode killing assay (infection model); conditions: NGM plate; 16 μg/ml COG1410 alone or 2 μg/ml COG1410 plus 1 μg/ml polymyxin B
[8] = tested on: A. baumannii YQ4 preformed biofilm; assay: Biofilm eradication assay, crystal violet; assay type: cell-based, Acinetobacter baumannii; conditions: 24 h
A. baumannii YQ4 [9] = assay: ROS detection with DCFH-DA probe; assay type: cell-based, Acinetobacter baumannii
A. baumannii YQ4 [10] = assay: Bactericidal efficacy (LC99.9) in PBS with or without 50% human plasma; assay type: cell-based, Acinetobacter baumannii; conditions: 2 h, listed as COG1410
Experimental: Antibacterial activity in plasma of COG1410 was performed as described previously. […] After incubation with shaking at 200 rpm at 37° C. for 2 hours, the CFUs were counted on LB agar. LC99.9 indicates the lowest peptide concentration that kills ≥99.9% bacteria (ie. a 1000 fold reduction). The experiments were conducted independently for three times.

A. baumannii YQ4 [11] = tested on: A. baumannii YQ4
Experimental: The checkerboard method was performed to determine the fractional inhibitory concentration (FIC) index between COG1410 and other antimicrobials. Two-fold serial dilutions of antimicrobials and COG1410 were conducted and mixed in the 96-well plate. […] The experiments were conducted twice independently.

A. baumannii YQ4 [12] = assay: ATP leakage assay; assay type: cell-based, Acinetobacter baumannii; conditions: 1×MIC, 30 min
[13] = tested on: pan-drug resistant (PDR) Acinetobacter baumannii YQ4; assay: microbe, parasite or virus in culture

## CC(=O)N[C@@H](C)C(=O)N[C@@H](CO)C(=O)NC(C)(C)C(=O)N[C@@H](CC(C)C)C(=O)N[C@@H](CCCNC(=N)N)C(=O)N[C@@H](CCCCN)C(=O)N[C@@H](CC(C)C)C(=O)NC(C)(C)C(=O)N[C@@H](CCCCN)C(=O)N[C@@H](CCCNC(=N)N)C(=O)N[C@@H](CC(C)C)C(=O)N[C@@H](CC(C)C)C(N)=O [SEQ ID NO: 1, acetyl-AS-aib-LRKL-aib-KRLL-amide] (Ac-AS[Aib]LRKL[Aib]KRLL-NH2)
[1]
  functional outcome: significantly improved vestibulomotor function and spatial learning and memory
[2]
  antimicrobial activity: inactive
[3]; 37° C., first 2 h
  inhibition diameters: did not significantly change
[3]; 4 h
  activity reduced: 6.8%
[3]; 10 h
  activity lost: 20%
[3]; after 10 h
  activity retained: more than 80%
A. baumannii
  bactericidal efficacy: near elimination
P. gingivalis
  MIC P. gingivalis: 16 to 64 µg/mL
PDR A. baumannii YQ4; 1×MIC, 30 min
  reduction in CFU: 6 log
PDR A. baumannii YQ4; 1×MIC, within 5 min
  decrease of CFU: ~3 logs
PDR A. baumannii YQ4; 5×MIC, within 5 min
  killing of inoculum (1×10^8 CFU/ml): completely eliminated
A. baumanii YQ4
  increase of MIC: 4 fold
[4]
  half-maximal (EC50) toxicity concentration: 58.9 µg/mL
A. baumannii YQ4 biofilm; 0.5×MIC, 48 h
  biofilm formation: significantly reduced biofilm formation
A. baumannii YQ4 biofilm; 1×MIC
  biofilm mass reduced, compared with untreated controls: 55%
Human erythrocytes; 1 h
  EC50 (half of the red blood cells lysed): 441 µg/mL
Human erythrocytes; red cells of human, 128 μg/ml
  hemolysis: less than 5%
[5]; A. baumannii YQ4
  MIC: 11.3 µM
[5]; A. baumannii YQ4, LB broth
  MIC: 16 µg/mL
[5]; A. baumannii YQ4, listed as COG1410
  minimal bactericidal concentration (MBC): 16 μg/ml and 11.3 μM
[6]
  effect of lipidA modification of LPS on antimicrobial efficacy: did not change the antimicrobial efficacy
A. baumannii YQ4 [7]
  survival of pre-infected nematodes: alleviated the death of infected nematodes, but the change was not statistically significantly
[8]; 1×MIC
  mature biofilm dispersed: ca. 46%
[8]; 4×MIC
  biofilm eradicated: more than 88%
A. baumannii YQ4 [9]; 16 μg/ml
  ROS production: significantly increased ROS production
A. baumannii YQ4 [9]; treatment for 20 min
  more ROS detected after treatment: 30%
A. baumannii YQ4 [10]; PBS with 50% human plasma
  LC99.9: 8 μg/ml and 5.6 μM
A. baumannii YQ4 [10]; PBS
  LC99.9: 2 μg/ml and 1.4 μM
A. baumannii YQ4 [11]; COG1410 combined with polymyxin B
  working concentration in the combination: 2 µg/mL
A. baumannii YQ4 [11]; in combination with Ceftazidime
  FIC: 0.31
A. baumannii YQ4 [11]; in combination with polymyxin B
  FIC: 0.13
A. baumannii YQ4 [11]; in combination with tetracycline
  FIC: 0.31
A. baumannii YQ4 [12]
  ATP leakage: significantly more than untreated controls and the tigecycline treatment group

## CN(C)c1cc(NC(=O)CNC(C)(C)C)c(O)c2c1C[C@H]1C[C@H]3[C@H](N(C)C)C(O)=C(C(N)=O)C(=O)[C@@]3(O)C(O)=C1C2=O [tigecycline]
[13]
  MIC: 32 µg/mL (≈ 54.6 µM)
